Series [1] deals with C. neoformans H99S (serotype A lab strain). Nature of the series: Minimum inhibitory concentration (MIC) testing, CLSI broth dilution, PrestoBlue viability. The series is classed as cell-based, Cryptococcus neoformans. How it is done:
The minimum inhibitory concentration (MIC) was determined against C. neoformans H99S (serotype A lab strain) as previously described. (Corson, et al. ACS Med. Chem. Lett. 2016, 7(12).) All MIC assays were carried out following CLSI guidelines. (CLSI. Reference method for broth dilution antifungal susceptibility testing of yeasts; approved standard-third edition; CLSI document M27-A3; Clinical and Laboratory Standards Institute: Wayne, Pa.) Briefly, the organism to be tested was streaked from frozen stock for isolation and incubated for 96 hours. A 5 mL solution of 0.85% saline was inoculated with 1-2 colonies of the organism of interest, and the inoculated solution was vortexed for one minute. The optical density at 530 nanometers (nm) was acquired on a spectrophotometer and adjusted through addition of saline or cells to obtain an OD530nm of 0.15 to 0.25. A 1:100 solution of Roswell Park Memorial Institute (RPMI) media containing 3-morpholinopropane sulfonic acid (MOPS; 0.1 M) and cells was made by adding 0.100 mL of saline inoculated with cells to 9.9 mL of RMPI. The solution was vortexed and used to make a 1:20 solution by adding and vortexing 0.5 mL of the 1:100 solution to 9.5 mL of RPMI+0.1 M MOPS. (This was repeated twice to make a total of 20 mL of 1:20 RPMI+ cells.)
Two-fold serial dilutions of peptoid were prepared in water at 100 times the concentration to be tested. In a 96-well plate, 198 μL of 1:20 RPMI+cells was placed in each well followed by 2 μL of 100-times compound or vehicle control in triplicate. The plate was incubated at 35° C. for 72 hours. For viability analysis, 20 μL of PrestoBlue was added to each well, the plate incubated for 8 hours, and the fluorescent intensity of each well measured (Ex. 555 nm; Em. 585 nm). All triplicate assays were repeated twice on different days.

Series [2] has as its system HepG2 hepatocarcinoma cells. In words: Mammalian cytotoxicity testing (MTT), HepG2. The series is classed as cell-based. The note with it: for toxicity dose 50% (TD50), HepG2: sarcosine scan. How it is done: (§1) NIH/3T3 mouse fibroblasts and HepG2 hepatocarcinoma cells, cells were grown in DMEM containing 10% FBS at 37° C. and 5% CO2 atmosphere. For cytotoxicity testing, cells were seeded into 96-well plates in phenol red free DMEM containing 10% FBS and incubated for 2 hours to allow cell attachment. Cells were then treated with varying concentrations of peptoid or vehicle control. After 72 hours incubation, 3-(4,5-dimethylthiazol-2-yl)-2,5-diphenyltetrazolium bromide (MTT; 20 μL; 5 mg/mL) was added to each well and the plate incubated for 3.5 hours. Media was removed from each well and 100 μL of DMSO was added and the plate incubated at 37° C. for 10 minutes. The absorbance at 570 nm was then read on a spectrophotometer, percent inhibition determined, and TD50 calculated using GraFit. All triplicate assays were repeated twice on different days.

The conditions of series [3]: Corson et al. 2016; cited from earlier work.
In series [4] the test system is NIH/3T3 mouse fibroblasts. Nature of the series: Mammalian cytotoxicity testing (MTT), NIH/3T3. In kind it is cell-based. How it is done: as §1, with “For” for “NIH/3T3 mouse fibroblasts and HepG2 hepatocarcinoma cells, cells were grown in DMEM containing 10% FBS at 37° C. and 5% CO2 atmosphere. For”
The subject of series [5] is human red blood cells (hRBCs). In words: Hemolytic activity against human red blood cells. In kind it is cell-based. The note with it: human erythrocytes, HC10. How it is done:
The hemolytic activity of peptoids against human red blood cells (hRBCs) was done as previously described. (Murugan et al. Bioorg. Med. Chem. Lett. 2013, 23(16), 4633-4636.) Briefly, hRBCs were washed 3× with PBS (11.8 mM phosphate; 140.4 mM NaCl; pH 7.4) by centrifugation (10 minutes at 1000×g). Cells were resuspended in PBS and 100 μL aliquots placed into individual wells of a 96-well plate. Peptoid solutions (2-fold serial dilution in PBS; 400-3.13 μg/mL final) were added to the wells. A negative control was prepared by adding PBS with no peptoid to the hRBCs and a positive control was prepared by adding 1% Triton X-100 to the hRBCs. The plate was incubated at 37° C. for 1 hour, centrifuged at 1000×g for 10 minutes, and 5 μL of supernatant transferred into 95 μL of PBS in a new 96-well plate. Released hemoglobin was measured by reading the absorbance at 405 nm on a spectrophotometer. All triplicate assays were repeated twice on different days. Percent hemolysis was calculated as follows:
[formula] The Hill Slope (H) and HC50 was determined using GraFit and HC10 was calculated from HC50 using the following equation: HC10=HC50[10%/(100%−10%)]^1/H NMR Analysis

The mark [6] stands for this setting: C. neoformans MIC, relative to AEC5.

Where only a bound is given, the exact number is not on record here.

Consider `CCCCCCCCCCCCCNCC(=O)N(CCCCN)CC(=O)N(C)CC(N)=O` [AEC5sar3], for which the “fold decrease in antifungal potency compared to AEC5” value in series [1] (setting [6]) was determined as 8 fold. The “change of mammalian cell toxicity compared to AEC5” value in series [2] (HepG2) is on record as “little effect on mammalian toxicity”.
Turning to `CCCCCCCCCCCCCNCC(=O)N(CCCCN)CC(=O)N(CC(N)=O)Cc1ccco1` [AEC5, reference compound], the “TD50 against HepG2 liver cells” value in series [2] (72 hours incubation, MTT) came to 56.2 µg/mL. Besides, the “toxicity dose 50% (TD50), HepG2” value in series [2] is listed as 56.2 m/mL. Moreover, the “in vitro proteolytic stability” value in series [3] is “excellent”.
In the case of `CNCC(=O)N(CCCCN)CC(=O)N(CC(N)=O)Cc1ccco1` [AEC5sar1], the “antifungal potency (MIC), above highest concentration tested” value in series [1] (sarcosine scan) was > 400 m/mL. Also, the “toxicity dose 50% (TD50), HepG2” value in series [2] is on record as > 800 m/mL.
What is called MIC is the lowest concentration found to suppress growth. On to `CCCCCCCCCCCCCNCC(=O)N(CCCCN)CC(=O)N(CC(N)=O)Cc1cccs1` [γ-2], for which the “fold improvement in antifungal potency compared to AEC5” value in series [1] (setting [6]) is on record as 2 fold. In addition, the MIC in series [1] (Cryptococcus neoformans, read-out: MIC against C. neoformans) is < 3.5 µg/mL. In addition, the “selectivity ratio (TD50/MIC)” value in series [2] (HepG2 TD50 and C. neoformans MIC) was determined as 25.3. For the same compound, in series [4], the “toxicity towards NIH/3T3 mouse fibroblasts compared to AEC5” value is reported as “decreased toxicity”. In series [4] (NIH/3T3 toxicity and C. neoformans MIC), the “selectivity ratio, NIH/3T3 mouse fibroblasts” value was found to be 21. For the same compound, in series [5], the “level of hemolysis compared to AEC5” value is listed as “slightly higher levels of hemolysis”.
In the case of `CCCCCCCCCCCCCNCC(=O)N(C)CC(=O)N(CC(N)=O)Cc1ccco1` [AEC5sar2], in series [1] (setting [6]), the “fold decrease in antifungal potency compared to AEC5” value is 2 fold. In addition, the “fold change of toxicity dose 50% (TD50) compared to AEC5” value in series [2] (HepG2, relative to AEC5, printed as increased) came to 2 fold. Also, the “toxicity dose 50% (TD50), HepG2” value in series [2] is 21.1 m/mL.

Source of the values: patent US11369586B2, “Antifungal peptoids” (MIDDLE TENNESSEE STATE UNIVERSITY, priority 2018, dated 2022).
